Values after ≈ are worked out from the molar mass of the structure shown. Read-outs that look alike come from different tables or passages of the source. No end group written: not given here.
Columns and labels:
Fusarium solani JCM11383 = details: Table 4; two tests, first/second value where not identical
[1] = tested on: Alternaria alternata JCM5800; details: Table 4; two tests, first/second value where not identical
[2] = tested on: Trichophyton mentagrophytes NBRC6124; details: Table 4; two tests, first/second value where not identical
[3] = tested on: Trichophyton rubrum NBRC9185; details: Table 4; two tests, first/second value where not identical
Candida krusei NBRC1395 = details: Table 4; two tests, first/second value where not identical
[4] = tested on: Enterobacter aerogenes JCM 1235; assay: microbe, parasite or virus in culture; assay type: cell-based; details: Table 4; two tests, first/second value where not identical
Method: (§1) Bacteria (Escherichia coli ATCC 25922, Pseudomonas aeruginosa ATCC 27853, Staphylococcus aureus ATCC29213, Klebsiella pneumoniae JCM 1662, Enterobacter cloacae JCM 1232, Enterobacter aerogenes JCM 1235 and Staphylococcus epidermidis JCM 2414) were inoculated to Mueller-Hinton broth: MHB or LB medium, and cultured at a temperature and period suited for each strain. From the thus obtained colonies, each strain was inoculated to a fresh liquid medium and cultured for 16 to 20 hours. Then an aliquot having a volume (10 to 50 appropriate to each strain was inoculated to a fresh liquid medium and cultured for 4 to 6 hours, followed by the measurement of the absorbance at 600 nm. After comparing the turbidity with McFarland #0.5, the resultant was diluted with a medium. Each strain was added to about 10^5 CFU/mL (final concentration). Each of the peptide solutions to be tested was diluted with MHB to obtain a solution of 128 μg/mL. […] As controls, tobramycin (TOB: aminoglucoside antibiotic), oxacillin (OX:β-lactam antibiotic), meropenem (MEPM: carbapenem antibiotic) and ciprofloxacin (new quinolone antibiotic) were used. […] To a 96-well microtiter plate, 0.1 mL of the inoculation solution and 0.1 mL of the peptide- or positive control-containing medium having the respective concentration were added, and cultured at 37° C. for 16 to 24 hours (or a time period suited for the growth of the respective strain). The well not containing the sample was used as a negative control. After the culturing, the growth was visually observed, and the minimum concentration at which the growth was inhibited was defined as the minimum growth inhibition concentration (MIC). The medium used in this test for bacteria was Mueller-Hinton broth. Independent experiments were carried out twice or more for each strain.

[5] = tested on: Escherichia coli ATCC 25922; assay: microbe, parasite or virus in culture; assay type: cell-based
Method: as §1

[6] = tested on: Klebsiella pneumoniae JCM 1662; assay: microbe, parasite or virus in culture; assay type: cell-based
Method: as §1

[7] = tested on: Pseudomonas aeruginosa ATCC 27853; assay: microbe, parasite or virus in culture; assay type: cell-based
Method: as §1

[8] = tested on: Staphylococcus aureus ATCC29213; assay: microbe, parasite or virus in culture; assay type: cell-based
Method: as §1

[9] = tested on: Staphylococcus epidermidis JCM 2414; assay: microbe, parasite or virus in culture; assay type: cell-based
Method: as §1

[10] = tested on: Enterobacter cloacae JCM 1232; assay type: cell-based; details: Table 4; two tests, first/second value where not identical
Method: as §1

[11] = tested on: Pseudomonas aeruginosa 1 (clinical strain); assay: microbe, parasite or virus in culture; details: Table 4; clinical strain; first/second value where not identical
Method: (§2) Bacteria (Escherichia coli ATCC 25922, Pseudomonas aeruginosa ATCC 27853, Staphylococcus aureus ATCC29213, Klebsiella pneumoniae JCM 1662, Enterobacter cloacae JCM 1232, Enterobacter aerogenes JCM 1235 and Staphylococcus epidermidis JCM 2414) were inoculated to Mueller-Hinton broth: MHB or LB medium, and cultured at a temperature and period suited for each strain. From the thus obtained colonies, each strain was inoculated to a fresh liquid medium and cultured for 16 to 20 hours. Then an aliquot having a volume (10 to 50 appropriate to each strain was inoculated to a fresh liquid medium and cultured for 4 to 6 hours, followed by the measurement of the absorbance at 600 nm. After comparing the turbidity with McFarland #0.5, the resultant was diluted with a medium. Each strain was added to about 10^5 CFU/mL (final concentration).
(§3) Further, the antibacterial activities against the clinical strains collected and isolated from infected patients were also examined. The tests were carried out for two methicillin-resistant Staphylococcus (MRSA) (MRSA (i) and (ii)), two methicillin-sensitive Staphylococcus (MSSA) (MSSA (i) and (ii)), five Pseudomonas aeruginosa, Pseudomonas aeruginosa 1, Pseudomonas aeruginosa 6, Pseudomonas aeruginosa 8. Pseudomonas aeruginosa 9 and Pseudomonas aeruginosa 12, totally 9 clinical strains. The MRSA and MSSA clinical strains were tested by the same method as Staphylococcus aureus ATCC29213, and Pseudomonas clinical strains were tested by the same method as Pseudomonas aeruginosa ATCC 27853.
(§4) Each of the peptide solutions to be tested was diluted with MHB to obtain a solution of 128 μg/mL. This solution was serially diluted with the medium to prepare peptide-containing media having concentrations of 128, 64, 32, 16, 8.0, 4.0 and 2.0 μg/mL respectively. […] By dilution with sterilized purified water to 1.0 mg/mL, positive control-containing media having concentrations of 16, 8, 4, 2, 1.0, 0.25, 0.12 and 0.06 μg/mL, respectively for TOB; 0.5, 0.12 and 0.06 μg/mL, respectively, for OX; and 16, 8, 4, 2, 1.0, 0.25, 0.12, 0.06, 0.06, 0.03 and 0.008 μg/mL, respectively, for MEPM, were prepared.
(§5) To a 96-well microtiter plate, 0.1 mL of the inoculation solution and 0.1 mL of the peptide- or positive control-containing medium having the respective concentration were added, and cultured at 37° C. for 16 to 24 hours (or a time period suited for the growth of the respective strain). The well not containing the sample was used as a negative control. After the culturing, the growth was visually observed, and the minimum concentration at which the growth was inhibited was defined as the minimum growth inhibition concentration (MIC).
(§6) The medium used in this test for bacteria was Mueller-Hinton broth. Independent experiments were carried out twice or more for each strain.

[12] = tested on: Pseudomonas aeruginosa 12 (clinical strain); assay: microbe, parasite or virus in culture
Method: as §2, §3, §4, §5, §6

[13] = tested on: Pseudomonas aeruginosa 6 (clinical strain); assay: microbe, parasite or virus in culture; details: Table 4; clinical strain; first/second value where not identical
Method: as §2, §3, §4, §5, §6

[14] = tested on: Pseudomonas aeruginosa 9 (clinical strain); assay: microbe, parasite or virus in culture; details: Table 4; clinical strain; first/second value where not identical
Method: as §2, §3, §4, §5, §6

[15] = tested on: Pseudomonas aeruginosa 8 (clinical strain); details: Table 4; clinical strain; first/second value where not identical
Method: as §2, §3, §4, §5, §6

[16] = tested on: Escherichia coli ATCC 25922; assay: ATP Assay (viability at 3 hours), Table 6; assay type: cell-based; details: 3 h, 5 μg/mL
Method: as §2, with “ATCC29213,” for “ATCC29213, Klebsiella pneumoniae JCM 1662, Enterobacter cloacae JCM 1232, Enterobacter aerogenes JCM 1235”, “50 μL)” for “50”
(§7) Each of the peptide solutions to be tested was diluted with the medium to obtain a solution of 10 μg/mL. As positive controls, tobramycin (TOB), oxacillin (OX) and meropenem (MEPM) were used. By dilution with sterilized purified water to 1.0 mg/mL, positive control-containing media having concentrations of […], respectively for TOB; 0.5, 0.12 and 0.06 μg/mL, respectively, for OX; and 1.0, 0.25, 0.12, 0.06, 0.03 and 0.008 μg/mL respectively, for MEPM, were prepared. To a 96-well microtiter plate, 0.1 mL of the inoculation solution and 0.1 mL of the peptide- or positive control-containing medium having the respective concentration were added, and cultured at 37° C. for 3 hours. The well not containing the sample was used as a negative control. After the culturing, ATP was measured using BacTiter-Glo Microbial Cell Viability Assay kit of PROMEGA, and compared with that in the negative control to obtain a relative value which was defined as a viability. The antibacterial activity was evaluated based on the viability at 3 hours later using ATP as an index.
(§8) The medium used in this test for bacteria was Mueller-Hinton broth. Independent experiments were carried out twice for each strain.

[17] = tested on: Pseudomonas aeruginosa ATCC 27853; assay: ATP Assay (viability at 3 hours), Table 6; assay type: cell-based; details: 3 h, 5 μg/mL
Method: as §2, with “ATCC29213,” for “ATCC29213, Klebsiella pneumoniae JCM 1662, Enterobacter cloacae JCM 1232, Enterobacter aerogenes JCM 1235”, “50 μL)” for “50”
as §7, §8

[18] = tested on: Staphylococcus aureus ATCC29213; assay: ATP Assay (viability at 3 hours), Table 6; assay type: cell-based; details: 3 h, 5 μg/mL
Method: as §2, with “ATCC29213,” for “ATCC29213, Klebsiella pneumoniae JCM 1662, Enterobacter cloacae JCM 1232, Enterobacter aerogenes JCM 1235”, “50 μL)” for “50”
as §7, §8

[19] = tested on: Aspergillus niger NBRC 9455; details: Table 4; two tests, first/second value where not identical
[20] = tested on: Cryptococcus neoformans IFM 46660
[21] = tested on: Rhizopus oryzae NBRC 31005; details: NBRC 31005
[22] = Table 4, two tests, first/second value where not identical
[23] = Table 4, clinical strain, first/second value where not identical

## C[C@@H]1[C@H](O)[C@@H](C)/C=C/C=C/C=C/C=C/C=C/C=C/C=C/[C@H](O[C@@H]2O[C@H](C)[C@@H](O)[C@H](N)[C@@H]2O)C[C@@H]2O[C@](O)(C[C@@H](O)C[C@@H](O)[C@H](O)CC[C@@H](O)C[C@@H](O)CC(=O)O[C@H]1C)C[C@H](O)[C@H]2C(=O)O [amphotericin B, reference compound]
Fusarium solani JCM11383
  MIC Fusarium solani: 1000 µg/mL (≈ 1080 µM)
[1]
  MIC Alternaria alternata: 1000 µg/mL (≈ 1080 µM)
[2]
  MIC Trichophyton mentagrophytes: 125 µg/mL (≈ 135 µM)
[3]
  MIC Trichophyton rubrum: 250 µg/mL (≈ 271 µM)
Candida krusei NBRC1395
  MIC Candida krusei: 2000 µg/mL (≈ 2160 µM)

## LKLIFLHRLKRMRKRLKRKL-NH2 [SRP-11]
[4]
  MIC Enterobacter aerogenes: 32/64
[5]; [22]
  MIC Escherichia coli: 32/64
[6]; [22]
  MIC Klebsiella pneumoniae: 64/128
[7]; ATCC 27853
  MIC Pseudomonas aeruginosa: 16 µg/mL
[8]; ATCC29213
  MIC Staphylococcus aureus: 16 µg/mL
[9]; JCM 2414
  MIC Staphylococcus epidermidis: 8 µg/mL
[10]
  MIC Enterobacter cloacae: 128< mg/mL
[11]
  MIC Pseudomonas aeruginosa 1: 16/32
[12]; 12 (clinical strain)
  MIC Pseudomonas aeruginosa 12: 16 µg/mL
[13]
  MIC Pseudomonas aeruginosa 6: 16/32
[14]
  MIC Pseudomonas aeruginosa 9: 16/32
[15]
  MIC Pseudomonas aeruginosa 8: 16/32
[16]
  Escherichia coli ATP (viability, relative value to negative control): 3.8
[17]
  Pseudomonas aeruginosa ATP (viability, relative value to negative control): 0.8
[18]
  Staphylococcus aureus ATP (viability, relative value to negative control): 0.3
[19]
  MIC Aspergillus niger: 8/32
[20]; IFM 46660
  MIC Cryptococcus neoformans: 2 µg/mL
[21]
  MIC Rhizopus oryzae: 8 µg/mL

## MLKLIFLHRLKRMRKRLKRK-NH2 [SRP-10]
[4]
  MIC Enterobacter aerogenes: 16/128
[5]; [22]
  MIC Escherichia coli: 32/64
[6]; [22]
  MIC Klebsiella pneumoniae: 64/128
[7]; [22]
  MIC Pseudomonas aeruginosa: 16/32
[8]; ATCC29213
  MIC Staphylococcus aureus: 16 µg/mL
[9]; JCM 2414
  MIC Staphylococcus epidermidis: 8 µg/mL
[10]
  MIC Enterobacter cloacae: 64/128
[11]
  MIC Pseudomonas aeruginosa 1: 16/64
[12]; [23]
  MIC Pseudomonas aeruginosa 12: 16/32
[13]
  MIC Pseudomonas aeruginosa 6: 32/128
[14]
  MIC Pseudomonas aeruginosa 9: 64/128
[15]
  MIC Pseudomonas aeruginosa 8: 64/128
[16]
  Escherichia coli ATP (viability, relative value to negative control): 2.4
[17]
  Pseudomonas aeruginosa ATP (viability, relative value to negative control): 0.9
[18]
  Staphylococcus aureus ATP (viability, relative value to negative control): 0.2
[19]
  MIC Aspergillus niger: 8/16
[20]; IFM 46660
  MIC Cryptococcus neoformans: 2 µg/mL
[21]
  MIC Rhizopus oryzae: 8 µg/mL

## MLKLIFLHRLKRMRKRLKRKLR-NH2 [SRP-9]
[4]
  MIC Enterobacter aerogenes: 16/64
[5]; ATCC 25922
  MIC Escherichia coli: 32 µg/mL
[6]; JCM 1662
  MIC Klebsiella pneumoniae: 64 µg/mL
[7]; ATCC 27853
  MIC Pseudomonas aeruginosa: 16 µg/mL
[8]; [22]
  MIC Staphylococcus aureus: 16/32
[9]; [22]
  MIC Staphylococcus epidermidis: 8/32
[10]
  MIC Enterobacter cloacae: 16/64
[11]
  MIC Pseudomonas aeruginosa 1: 16/32
[12]; [23]
  MIC Pseudomonas aeruginosa 12: 16/32
[13]
  MIC Pseudomonas aeruginosa 6: 16/64
[14]
  MIC Pseudomonas aeruginosa 9: 32/128
[15]
  MIC Pseudomonas aeruginosa 8: 8/32
[16]
  Escherichia coli ATP (viability, relative value to negative control): 2.6
[17]
  Pseudomonas aeruginosa ATP (viability, relative value to negative control): 0.8
[18]
  Staphylococcus aureus ATP (viability, relative value to negative control): 0.2
[19]
  MIC Aspergillus niger: 16/32
[20]; [22]
  MIC Cryptococcus neoformans: 1/2
[21]
  MIC Rhizopus oryzae: 8 µg/mL

Reference: patent publication US8470765B2, “Polypeptides and antibacterial or antiseptic use of same” (AnGes MG, Inc., priority 2009, dated 2013)
